Like-named read-outs stand apart in the source and are kept apart here.
Assays:
[1] = system: Key Broadleaf Weed and Crop Species; assay: Post-Emergent Test II: postemergent herbicidal activity, visual rating after 14 d (Table 7); format: in vivo; conditions: post-emergence, 336 h; for pest or weed control at 35 g/ha: 35 g ai/ha; for pest or weed control at 70 g/ha: 70 g ai/ha; for pest or weed control at 140 g/ha: 140 g ai/ha
Description: (§1) Herbicidal evaluations were made visually on a scale of 0 to 100 where 0 represents no activity and 100 represents complete plant death.
(§2) Seeds or nutlets of the desired test plant species were planted in Sun Gro Metro-Mix® 360 planting mixture, which typically has a pH of 6.0 to 6.8 and an organic matter content of about 30 percent, in plastic pots with a surface area of 64 square centimeters (cm^2). When required to ensure good germination and healthy plants, a fungicide treatment and/or other chemical or physical treatment was applied. The plants were grown for 7-21 d in a greenhouse with an approximate 15 h photoperiod which was maintained at about 23-29° C. during the day and 22-28° C. during the night. Nutrients and water were added on a regular basis and supplemental lighting was provided with overhead metal halide 1000-Watt lamps as necessary. The plants were employed for testing when they reached the first or second true leaf stage.
(§3) A weighed amount, determined by the highest rate to be tested, of each test compound was placed in a 25 mL glass vial and was dissolved in 4 mL of a 97:3 v/v mixture of acetone and DMSO to obtain concentrated stock solutions. […] The concentrated stock solutions obtained were diluted with 20 mL of an aqueous mixture containing acetone, water, isopropyl alcohol, DMSO, Atplus 411F crop oil concentrate, and Triton® X-155 surfactant in a 48.5:39:10:1.5:1.0:0.02 v/v ratio to obtain spray solutions containing the highest application rates. Additional application rates were obtained by serial dilution of 12 mL of the high rate solution into a solution containing 2 mL of a 97:3 v/v mixture of acetone and DMSO and 10 mL of an aqueous mixture containing acetone, water, isopropyl alcohol, DMSO, Atplus 411F crop oil concentrate, and Triton X-155 surfactant in a 48.5:39:10:1.5:1.0:0.02 v/v ratio to obtain ½×, ¼×, ⅛× and 1/16× rates of the high rate. Compound requirements are based upon a 12 mL application volume at a rate of 187 liters per hectare (L/ha). Formulated compounds were applied to the plant material with an overhead Mandel track sprayer equipped with 8002E nozzles calibrated to deliver 187 L/ha over an application area of 0.503 square meters at a spray height of 18 inches (43 cm) above the average plant canopy height. Control plants were sprayed in the same manner with the solvent blank.
(§4) The treated plants and control plants were placed in a greenhouse as described above and watered by subirrigation to prevent wash-off of the test compounds. After 14 d, the condition of the test plants as compared with that of the untreated plants was determined visually and scored on a scale of 0 to 100 percent where 0 corresponds to no injury and 100 corresponds to complete kill and are presented as indicated in Table 4.

[2] = system: Key Grass and Sedge Weeds as well as Grass Crops; assay: Post-Emergent Test II: postemergent herbicidal activity, visual rating after 14 d (Table 8); format: in vivo; conditions: post-emergence, 336 h; for pest or weed control at 35 g/ha: 35 g ai/ha; for pest or weed control at 70 g/ha: 70 g ai/ha; for pest or weed control at 140 g/ha: 140 g ai/ha
Description: as §1, §2, §3, §4

[3] = lambsquarters (Chenopodium album), read-out: Visual Growth Reduction (%) 14 Days After Application CHEAL
[4] = oilseed rape, canola (Brassica napus), read-out: Visual Growth Reduction (%) 14 Days After Application BRSNN
[5] = redroot pigweed (Amaranthus retroflexus), read-out: Visual Growth Reduction (%) 14 Days After Application AMARE
[6] = sunflower (Helianthus annuus), read-out: Visual Growth Reduction (%) 14 Days After Application HELAN
[7] = velvetleaf (Abutilon theophrasti), read-out: Visual Growth Reduction (%) 14 Days After Application ABUTH
[8] = wild poinsettia (Euphorbia heterophylla), read-out: Visual Growth Reduction (%) 14 Days After Application EPHHL
[9] = barnyardgrass (Echinochloa crus-galli), read-out: Visual Growth Reduction (%) 14 Days After Application ECHCG
[10] = giant foxtail (Setaria faberi), read-out: Visual Growth Reduction (%) 14 Days After Application SETFA
[11] = maize, corn (Zea mays), read-out: Visual Growth Reduction (%) 14 Days After Application ZEAMX
[12] = rice (Oryza sativa), read-out: Visual Growth Reduction (%) 14 Days After Application ORYSA
[13] = wheat, spring (Triticum aestivum), read-out: Visual Growth Reduction (%) 14 Days After Application TRZAS
[14] = yellow nutsedge (Cyperus esculentus), read-out: Visual Growth Reduction (%) 14 Days After Application CYPES

Compound | pest or weed control at 35 g/ha [1, 3] [%] | pest or weed control at 70 g/ha [1, 3] [%] | pest or weed control at 140 g/ha [1, 3] [%] | pest or weed control at 35 g/ha [1, 4] [%] | pest or weed control at 70 g/ha [1, 4] [%] | pest or weed control at 140 g/ha [1, 4] [%] | pest or weed control at 35 g/ha [1, 5] [%] | pest or weed control at 70 g/ha [1, 5] [%] | pest or weed control at 140 g/ha [1, 5] [%] | pest or weed control at 35 g/ha [1, 6] [%] | pest or weed control at 70 g/ha [1, 6] [%] | pest or weed control at 140 g/ha [1, 6] [%] | pest or weed control at 35 g/ha [1, 7] [%] | pest or weed control at 70 g/ha [1, 7] [%] | pest or weed control at 140 g/ha [1, 7] [%] | pest or weed control at 35 g/ha [1, 8] [%] | pest or weed control at 70 g/ha [1, 8] [%] | pest or weed control at 140 g/ha [1, 8] [%] | pest or weed control at 35 g/ha [2, 9] [%] | pest or weed control at 70 g/ha [2, 9] [%] | further results
Nc1c(Cl)c(C(=O)O)nc(-c2cc3c(cc2F)OC(F)(F)O3)c1Cl [Compound 3] | 0 to 29 | 0 to 29 | 45 to 59 | 0 to 29 | 0 to 29 | 0 to 29 | 0 to 29 | 95 to 100 | 95 to 100 | 0 to 29 | 0 to 29 | 85 to 94 | 0 to 29 | 0 to 29 | 0 to 29 | 0 to 29 | 0 to 29 | 0 to 29 | 0 to 29 | 0 to 29 | pest or weed control at 140 g/ha [2, 9]: 0 to 29%; pest or weed control at 35 g/ha [2, 10]: 0 to 29%; pest or weed control at 70 g/ha [2, 10]: 0 to 29%; pest or weed control at 140 g/ha [2, 10]: 0 to 29%; pest or weed control at 35 g/ha [2, 11]: 0 to 29%; pest or weed control at 70 g/ha [2, 11]: 0 to 29%; pest or weed control at 140 g/ha [2, 11]: 0 to 29%; pest or weed control at 35 g/ha [2, 12]: 0 to 29%; pest or weed control at 70 g/ha [2, 12]: 0 to 29%; pest or weed control at 140 g/ha [2, 12]: 0 to 29%; pest or weed control at 35 g/ha [2, 13]: 0 to 29%; pest or weed control at 70 g/ha [2, 13]: 0 to 29%; pest or weed control at 140 g/ha [2, 13]: 0 to 29%; pest or weed control at 35 g/ha [2, 14]: 0 to 29%; pest or weed control at 70 g/ha [2, 14]: 0 to 29%; pest or weed control at 140 g/ha [2, 14]: 0 to 29%
COC(=O)c1nc(-c2ccc3c(c2F)OC(F)(F)O3)c(Cl)c(N)c1Cl [Compound 4] | 0 to 29 | 0 to 29 | 0 to 29 | 0 to 29 | 0 to 29 | 0 to 29 | 0 to 29 | 0 to 29 | 0 to 29 | 0 to 29 | 45 to 59 | 60 to 74 | 0 to 29 | 0 to 29 | 0 to 29 | 0 to 29 | 0 to 29 | 0 to 29 | 0 to 29 | 0 to 29 | pest or weed control at 140 g/ha [2, 9]: 0 to 29%; pest or weed control at 35 g/ha [2, 10]: 0 to 29%; pest or weed control at 70 g/ha [2, 10]: 0 to 29%; pest or weed control at 140 g/ha [2, 10]: 0 to 29%; pest or weed control at 35 g/ha [2, 11]: 0 to 29%; pest or weed control at 70 g/ha [2, 11]: 0 to 29%; pest or weed control at 140 g/ha [2, 11]: 0 to 29%; pest or weed control at 35 g/ha [2, 12]: 0 to 29%; pest or weed control at 70 g/ha [2, 12]: 0 to 29%; pest or weed control at 140 g/ha [2, 12]: 0 to 29%; pest or weed control at 35 g/ha [2, 13]: 0 to 29%; pest or weed control at 70 g/ha [2, 13]: 0 to 29%; pest or weed control at 140 g/ha [2, 13]: 0 to 29%; pest or weed control at 35 g/ha [2, 14]: 0 to 29%; pest or weed control at 70 g/ha [2, 14]: 0 to 29%; pest or weed control at 140 g/ha [2, 14]: 0 to 29%
